Laboratory results from patent US20120029187A1, “HALOALKYLSULFONANILIDE DERIVATIVE” (Nissan Chemical Industries, Ltd., priority 2009, published 2012).

Columns and labels:
Format in all cases: in vivo
[1] = test system: barnyardgrass; experiment: Test Example 1: herbicidal effects in preemergence treatment under submerged conditions; settings: dose 2.52 g/a
Outline: (§1)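 Alluvial soil was flooded to 4 cm, sown with barnyardgrass, bulrush and ducksalad, and planted with 2.5-leaf rice seedlings. On the seeding day, water-diluted emulsifiable concentrates were applied to the water surface at set doses (g/a). After three weeks in a 25 to 30° C. greenhouse, mortality was scored 0–5.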

[2] = test system: bulrush; experiment: as above; settings: dose 2.52 g/a
Outline: as §1

[3] = test system: ducksalad; experiment: as above; settings: dose 2.52 g/a
Outline: as §1

[4] = test system: transplanted rice; experiment: Test Example 1: preemergence treatment under submerged conditions, effect on crop; settings: dose 2.52 g/a
Outline: as §1

[5] = test system: barnyardgrass; experiment: Test Example 2: herbicidal effects during the vegetation period under submerged conditions; settings: treatment during the vegetation period under submerged conditions; dose 2.52 g/a
Outline: (§2)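 Barnyardgrass, bulrush and ducksalad were co-sown in alluvial soil flooded to 4 cm and grown in a greenhouse at 25 to 30° C. At the 1- or 2-leaf stage, water-diluted emulsifiable concentrates went onto the water surface at set doses (g/a). Herbicidal effect was scored three weeks later on a graded scale.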

[6] = test system: bulrush; experiment: as above; settings: treatment during the vegetation period under submerged conditions; dose 2.52 g/a
Outline: as §2

[7] = test system: ducksalad; experiment: as above; settings: treatment during the vegetation period under submerged conditions; dose 2.52 g/a
Outline: as §2

[8] = test system: Italian ryegrass; experiment: Test Example 3: herbicidal effects in soil treatment; settings: dose 3.2 g/a
Outline: (§3)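 Seeds were sown in sterilized diluvial soil and covered with about 1.5 cm of soil. Compounds, formulated as emulsifiable concentrates and diluted with water, were sprayed evenly over the soil surface at set doses in g/a. Herbicidal effect was scored on a rating scale three weeks later.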

[9] = test system: barnyardgrass; experiment: as above; settings: dose 3.2 g/a
Outline: as §3

[10] = test system: common chickweed; experiment: as above; settings: dose 3.2 g/a
Outline: as §3

[11] = test system: common lambsquater; experiment: as above; settings: dose 3.2 g/a
Outline: as §3

[12] = test system: common ragweed; experiment: as above; settings: dose 3.2 g/a
Outline: as §3

[13] = test system: giant foxtail; experiment: as above; settings: dose 3.2 g/a
Outline: as §3

[14] = test system: large crabgrass; experiment: as above; settings: dose 3.2 g/a
Outline: as §3

[15] = test system: redroot pigweed; experiment: as above; settings: dose 3.2 g/a
Outline: as §3

[16] = test system: velvetleaf; experiment: as above; settings: dose 3.2 g/a
Outline: as §3

[17] = test system: water foxtail; experiment: as above; settings: dose 3.2 g/a
Outline: as §3

[18] = test system: wild oat; experiment: as above; settings: dose 3.2 g/a
Outline: as §3

[19] = test system: Italian ryegrass; experiment: Test Example 4: herbicidal effect in foliage treatment; settings: dose 3.2 g/a, three weeks after application
Outline: (§4)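 14-day greenhouse-grown plants (25–30° C) sprayed on foliage with diluted EC; dose as g/a; effect graded after 3 weeks.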

[20] = test system: barnyardgrass; experiment: as above; settings: dose 3.2 g/a, three weeks after application
Outline: as §4

[21] = test system: beadstraw; experiment: as above; settings: dose 3.2 g/a, three weeks after application
Outline: as §4

[22] = test system: common chickweed; experiment: as above; settings: dose 3.2 g/a, three weeks after application
Outline: as §4

[23] = test system: common lambsquater; experiment: as above; settings: dose 3.2 g/a, three weeks after application
Outline: as §4

[24] = test system: common ragweed; experiment: as above; settings: dose 3.2 g/a, three weeks after application
Outline: as §4

[25] = test system: giant foxtail; experiment: as above; settings: dose 3.2 g/a, three weeks after application
Outline: as §4

[26] = test system: large crabgrass; experiment: as above; settings: dose 3.2 g/a, three weeks after application
Outline: as §4

[27] = test system: posumbu knotweed; experiment: as above; settings: dose 3.2 g/a, three weeks after application
Outline: as §4

[28] = test system: redroot pigweed; experiment: as above; settings: dose 3.2 g/a, three weeks after application
Outline: as §4

[29] = test system: velvetleaf; experiment: as above; settings: dose 3.2 g/a, three weeks after application
Outline: as §4

[30] = test system: water foxtail; experiment: as above; settings: dose 3.2 g/a, three weeks after application
Outline: as §4

[31] = test system: wild oat; experiment: as above; settings: dose 3.2 g/a, three weeks after application
Outline: as §4

**Q.** With `CC1(C)CN(Cc2ccccc2NS(=O)(=O)C(F)(F)F)C(=O)CO1` [Compound I-15] as the compound, how does the “A: barnyardgrass, herbicidal effect (evaluation scale 0-5)” value [1] read?
**A.** The value was 5 (mortality of 90% or above (nearly complete death)).

**Q.** What about the “B: bulrush, herbicidal effect (evaluation scale 0-5)” value [2] of the same compound?
**A.** The value was 5 (mortality of 90% or above (nearly complete death)).

**Q.** And the “C: ducksalad, herbicidal effect (evaluation scale 0-5)” value [3]?
**A.** The value was 5 (mortality of 90% or above (nearly complete death)).

**Q.** And the “a: transplanted rice, effect on crop (evaluation scale 0-5)” value [4]?
**A.** Its value is 1 (mortality of at least 5% and less than 20%).

**Q.** What about the “A: barnyardgrass, herbicidal effect (evaluation scale 0-5)” value [5] of the same compound?
**A.** The value was 5 (mortality of 90% or above (nearly complete death)).

**Q.** And the “B: bulrush, herbicidal effect (evaluation scale 0-5)” value [6]?
**A.** Its value is 5 (mortality of 90% or above (nearly complete death)).

**Q.** What about the “C: ducksalad, herbicidal effect (evaluation scale 0-5)” value [7] of the same compound?
**A.** Its value is 5 (mortality of 90% or above (nearly complete death)).

**Q.** And the “H: Italian ryegrass, herbicidal effect (evaluation scale 0-5)” value [8]?
**A.** Its value is 5 (mortality of 90% or above (nearly complete death)).

**Q.** What about the “A: barnyardgrass, herbicidal effect (evaluation scale 0-5)” value [9] of the same compound?
**A.** Its value is 5 (mortality of 90% or above (nearly complete death)).

**Q.** And the “N: common chickweed, herbicidal effect (evaluation scale 0-5)” value [10]?
**A.** The value was 4 (mortality of at least 70% and less than 90%).

**Q.** And the “L: common lambsquater, herbicidal effect (evaluation scale 0-5)” value [11]?
**A.** Its value is 4 (mortality of at least 70% and less than 90%).

**Q.** And the “J: common ragweed, herbicidal effect (evaluation scale 0-5)” value [12]?
**A.** The value was 5 (mortality of 90% or above (nearly complete death)).

**Q.** What about the “E: giant foxtail, herbicidal effect (evaluation scale 0-5)” value [13] of the same compound?
**A.** Its value is 3 (mortality of at least 40% and less than 70%).

**Q.** What about the “D: large crabgrass, herbicidal effect (evaluation scale 0-5)” value [14] of the same compound?
**A.** The value was 5 (mortality of 90% or above (nearly complete death)).

**Q.** What about the “K: redroot pigweed, herbicidal effect (evaluation scale 0-5)” value [15] of the same compound?
**A.** Its value is 5 (mortality of 90% or above (nearly complete death)).

**Q.** And the “I: velvetleaf, herbicidal effect (evaluation scale 0-5)” value [16]?
**A.** Its value is 5 (mortality of 90% or above (nearly complete death)).

**Q.** What about the “G: water foxtail, herbicidal effect (evaluation scale 0-5)” value [17] of the same compound?
**A.** Its value is 5 (mortality of 90% or above (nearly complete death)).

**Q.** What about the “F: wild oat, herbicidal effect (evaluation scale 0-5)” value [18] of the same compound?
**A.** Its value is 3 (mortality of at least 40% and less than 70%).

**Q.** What about the “H: Italian ryegrass, herbicidal effect” value [19] of the same compound?
**A.** The value was 4 (mortality of at least 70% and less than 90%).

**Q.** What about the “A: barnyardgrass, herbicidal effect” value [20] of the same compound?
**A.** Its value is 5 (mortality of 90% or above (nearly complete death)).

**Q.** And the “O: beadstraw, herbicidal effect” value [21]?
**A.** The value was 4 (mortality of at least 70% and less than 90%).

**Q.** What about the “N: common chickweed, herbicidal effect” value [22] of the same compound?
**A.** Its value is 4 (mortality of at least 70% and less than 90%).

**Q.** And the “L: common lambsquater, herbicidal effect” value [23]?
**A.** The value was 3 (mortality of at least 40% and less than 70%).

**Q.** And the “J: common ragweed, herbicidal effect” value [24]?
**A.** Its value is 4 (mortality of at least 70% and less than 90%).

**Q.** And the “E: giant foxtail, herbicidal effect” value [25]?
**A.** The value was 4 (mortality of at least 70% and less than 90%).

**Q.** And the “D: large crabgrass, herbicidal effect” value [26]?
**A.** Its value is 4 (mortality of at least 70% and less than 90%).

**Q.** What about the “M: posumbu knotweed, herbicidal effect” value [27] of the same compound?
**A.** Its value is 4 (mortality of at least 70% and less than 90%).

**Q.** What about the “K: redroot pigweed, herbicidal effect” value [28] of the same compound?
**A.** The value was 3 (mortality of at least 40% and less than 70%).

**Q.** What about the “I: velvetleaf, herbicidal effect” value [29] of the same compound?
**A.** The value was 5 (mortality of 90% or above (nearly complete death)).

**Q.** What about the “G: water foxtail, herbicidal effect” value [30] of the same compound?
**A.** The value was 5 (mortality of 90% or above (nearly complete death)).

**Q.** What about the “F: wild oat, herbicidal effect” value [31] of the same compound?
**A.** Its value is 1 (mortality of at least 5% and less than 20%).
